Data from article PMC12084297, “Cytoplasmic connexin43-microtubule interactions promote glioblastoma stem-like cell maintenance and tumorigenicity” (Cell Death & Disease, 2025).

What was measured:
VTC-037 GSCs = assay: MTS viability, VTC-037 GSCs; format: cell-based, human; conditions: 4 days
Procedure: Cells were plated in 96-well plates (2000–5000 cells per well) and treated the following day with TMZ (10, 50, or 100 μM), antennapedia, JM2-scrambled, or JM2 (10, 50, or 100 μM). After 4 days, cell viability was monitored following addition of MTS reagent (Promega) according to manufacturer’s instructions. The absorbance at 490 nm was measured using a SpectraMax i3 or iD3 microplate reader (Molecular Devices). For the caspase 3/7 activity assay, cells were plated in 96-well plates (2000 cells per well) and treated with TMZ or peptides as described above. The activity of caspase 3/7 was measured after 48 h using the Caspase-Glo® 3/7 assay (Promega) following the manufacturer’s instructions. Fold change of caspase 3/7 activity was defined as the ratio of caspase 3/7 luminescence in treated cells compared to controls.

HEY1 mRNA = HEY1 mRNA by RT-qPCR, VTC-001 GSCs; format: cell-based, human; conditions: 50 μM, 24 h, RT-qPCR (as worded in text; no figure panel described)
Procedure: RNA was extracted using the PureLink^TM RNA mini extraction kit (Thermo Fisher) and on-column DNA digestion was completed using PureLink^TM DNase according to the manufacturer’s instructions. RNA was reverse transcribed to generate cDNA using the iScript^TM Reverse Transcription SuperMix for RT-qPCR kit (Bio-Rad Laboratories). Real-time PCR was performed using the SYBR select Master Mix for CFX (Thermo Fisher) in hard-shell 96-well PCR plates (Bio-Rad Laboratories) on a CFX Connect Real Time System (Bio-Rad Laboratories). Primer sequences used were: hNOTCH1_Fwd: 5’-CGCACAAGGTGTCTTCCAG-3’; hNOTCH1_Rev: 5’-CGGCGTGTGAGTTGATGA-3’; hHES1_Fwd: 5’-GGCTGGAGAGGCGGCTAA-3’; hHES1_Rev: 5’-[…]-3’; hHEY1_Fwd: 5’-[…]-3’; hHEY1_Rev: 5’-[…]-3’.

VTC-034 GSCs = assay: Cellular uptake by NeutrAvidin-HRP blotting, VTC-034 GSCs; format: in vitro ADME, human
Description: JM2 peptide includes the Cx43 C-terminal amino acids 231–245 that encompass the tubulin binding sequence (VFFKGVKDRVKGRSD). A control peptide, JM2-scrambled, was generated by random re-assembly of the same residues (GSDVFKRKFVDRKVG). Both peptides contain a 16-amino acid antennapedia internalization sequence (RQPKIWFPNRRKPWKK) and are N-terminally biotinylated. Lyophilized peptides were obtained from Peptron, Inc. (South Korea) with purity > 95%, reconstituted in water or in PBS at a concentration of 10 mM, and aliquots were stored at −80 °C freezer. Reconstituted peptides were added to the cell culture medium at different concentrations for times indicated. […]
Cells were lysed in RIPA buffer (0.1% sodium dodecyl sulphate, 50 mM Tris pH 7.4, 150 mM NaCl, 1 mM EDTA, 1% Triton X-100, 1% deoxycholic acid, 200 μM Na3VO4, and 1 mM NaF) supplemented with Halt^TM Protease and Phosphatase Inhibitor Cocktail (Thermo Fisher). […] Protein concentration was quantified using the DC protein assay (Bio-Rad Laboratories) and a standard curve obtained with increasing concentrations of Bovine Serum Albumin (BSA; Fisher Scientific). […] Membranes were imaged on a ChemiDoc™ imaging system, and analyzed with Image Lab software (Bio-Rad Laboratories). […]

VFFKGVKDRVKGRSD [JM2]
GSC viability with JM2 alone in combination experiment (MTS) (VTC-037 GSCs; VTC-037 adherent GSCs, 100 μM): significantly decreased GSC viability | GSC survival (MTS) (VTC-037 GSCs; VTC-037 adherent GSCs, 10, 50 or 100 μM): significantly decreased VTC-001, VTC-034, and VTC-037 GSC survival when cultured as adherent cells in a dose-dependent manner | Hey1 mRNA expression (HEY1 mRNA): significantly decreased the expression of Notch downstream targets Hes1 and Hey1 at the transcription level | Cellular uptake over time (VTC-034 GSCs; 50 μM, different times up to 48 h, NeutrAvidin-HRP blot): apparent after 1 h, and sustained for 24 h before JM2 signal in GSCs decreased at 48 h | Cellular uptake at increasing concentrations (VTC-034 GSCs; different concentrations, 24 h, NeutrAvidin-HRP blot of biotin-tagged peptide): Cellular uptake of JM2 at increasing concentrations was confirmed
